From patent publication US10130598B2, “Methods and compositions for administration of 3-halopyruvate and related compounds for the treatment of cancer” (The Johns Hopkins University, priority 2008, dated 2018)

Experiments:
[1] = tested on: VX2 tumor; assay: Oral administration of 3-BrPA in the VX2 liver tumor rabbit model; format: in vivo, New Zealand White rabbits
Procedure: New Zealand White rabbits were used in the study. All rabbits, carriers and recipients, were anesthetized with a mixture of acepromazine (2.5 mg/kg; Phoenix, St. Joseph, Mo.) and ketamine hydrochloride (44 mg/kg; Phoenix) administered intramuscularly. The VX2 tumor cell suspension was first injected into the hind legs of carrier rabbits and grown for 2 weeks. Resultant tumors were harvested from each carrier and a tumor suspension was prepared from each harvested tumor by dissection of viable tumor tissue and aseptic mincing.
For the rabbits that were going to receive the VX2 tumor implanted in the liver, intravenous access was gained via a marginal ear vein and 0.1-0.2 ml (2.5-5 mg) of sodium pentobarbital (Abbott Laboratories, Abbott Park, Ill.) was given periodically to maintain anesthesia. The abdomen of each recipient rabbit was shaved and disinfected with ethanol and povidine iodine. The liver of the rabbit was exposed by a midline incision, then an aliquot of the tumor cell suspension (0.2 ml) was injected directly using a 21-gauge angiocatheter into the left lobe of the liver in order to develop a solitary lesion with adequate surrounding liver parenchyma. The abdomen was closed in two layers. The tumor was allowed to grow in the rabbit livers for 7 days. Pain and distress levels were assessed by daily by monitoring food intake, feces and urine production and finally checking for signs of guarding or reluctance to move when touched.
Oral administration of 3-BrPA dissolved in PBS was examined using the VX2 tumor model, an animal model for hepatocellular carcinoma (described above). VX2 tumors were allowed to grow the livers of 12 New Zealand White rabbits for 10 days. Tumor bearing rabbits were divided in 4 groups. Group 1 (n=3) received 5 mg of 3-BrPA in 2.75 ml of Phosphate Buffered Saline (PBS) orally once a day, group 2 (n=3) received 10 mg of 3-BrPA in 2.75 ml of PBS orally once a day, group 3 (n=3) received 50 mg of 3-BrPA in 2.75 ml of PBS orally once a day and group 4 (control, n=3) received no treatment. Median survival for the animals in group 1 (n=3), receiving 5 mg of 3-BrPA in 2.75 ml of PBS, was 66 days. Animals in group 2 (n=3), receiving 10 mg of 3-BrPA in 2.75 ml of PBS, survived for 70 days. All the animals in group 3 (n=3), receiving 50 mg of 3-BrPA in 2.75 ml of PBS expired within 24 hours of oral administration of the first dose.
To test whether buffering 3-BrPA with NaHCO3 would allow oral administration of a higher dose of 3-BrPA, the maximum tolerated dose of orally administered 3-BrPA dissolved in NaHCO3 was determined. As in Example 1, the VX2 tumor model was used, with VX2 tumors grown in the livers of 12 New Zealand White rabbits for 10 days. Once again, the tumor bearing rabbits were divided in 4 groups. […] All animals in group 3 (n=3) expired within 24 hours after receiving 1000 mg of 3-BrPA in 2.75 ml of NaHCO3 orally.
The effect of pH on the survival of rabbits bearing VX2 liver tumors that were treated with the MTD of 3-BrPA buffered with NaHCO3 was examined. The VX2 tumor model was once again used, as described above. A total of 20 New Zealand White rabbits were included in the study. All rabbits received VX2 tumor implantation as described above. The tumor was allowed to grow in the rabbit livers for 7 days. Rabbits were divided in 4 groups. Group 1 (n=6) received 500 mg of 3-BrPA in 2.75 ml of NaHCO3 (1 M, resulting in pH 4), group 2 (n=2) received 500 mg of 3-BrPA in 2.75 ml of PBS (resulting in pH<2), group 3 (n=6) received 500 mg of 3-BrPA in 2.75 ml of NaHCO3 (2 M, resulting in pH 7) and group 4 (n=6) received no treatment (control group). All drugs were administered orally once a day.

[2] = tested on: genomic DNA; assay: 14C-3-BrPA incorporation into genomic DNA (scintillation counting); format: cell-based; settings: SK-Hep and Hep3B cells exposed to 14C-3-BrPA
Procedure: Many antineoplastic chemotherapeutics are alkylating agents that exert their effect by binding to DNA and interfering with cell replication. […] Since 3-BrPA has been reported to be an alkylating agent, it was determined whether 3-BrPA is incorporated into the DNA of 3-BrPA treated cells. To accomplish this, genomic DNA was isolated from SK-Hep and Hep3B cells that had been exposed to ^14C-3-BrPA.

[3] = ATP luminescent assay of 3-BrPA dissolved in alternative buffers; format: cell-based
Procedure: Cytotoxicity of 3-BrPA was evaluated by the IC50 values, representing the drug concentration which depletes ATP by 50% compared to non-treated control. On day 1, cells were seeded into 96-well plates in a volume of 100 μl per well. On day 2, the medium of all wells was removed and an aliquot of 100 μl of media having serial dilutions of 3-BrPA in PBS, NaHCO3, NaOH, KOH and KHCO3 was added to the appropriate well. After 24 h of drug exposure cytotoxic effects of 3-BrPA were monitored by cellular ATP level using CellTiter-Glo™ assay reagents from Promega Corp (Madison, Wis.). Briefly, 100 μl assay reagent was added to each well and mixed at room temperature for 2 min to develop luminescent signal. The luminescence intensity (cps) from each sample was determined with a spectrometer (Model Victor III, Perkin Elmer, Mass.). Relative luminescence was calculated in proportion to the numbers of living cells per sample well. The results are expressed as the mean of three independent experiments. The intracellular ATP contents were calculated and normalized by equal cell number and expressed as the percentage of the control cells. The IC50 values were estimated graphically from dose-response plots.
Based on the results described in Example 1, it was concluded that 10 mg of 3-BrPA is the maximum tolerated dose (MTD) if dissolved in 2.75 ml of PBS. […]

[4] = MTD of 3-BrPA buffered with 2.75 ml of NaHCO3
[5] = MTD of 3-BrPA buffered with NaHCO3

O=C(O)C(=O)CBr [3-BrPA, 3-bromopyruvate]
Median survival ([1]; 5 mg of 3-BrPA in 2.75 ml of PBS orally once a day): 66 days | Survival ([1]; 10 mg of 3-BrPA in 2.75 ml of PBS orally once a day): 70 days | Median survival ([1]; 50 mg of 3-BrPA in 2.75 ml of NaHCO3 (1M) orally once a day): 60 days | Time to death after first oral dose (all animals expired) ([1]; 50 mg of 3-BrPA in 2.75 ml of PBS orally): ≤ 24 h | Animal survival, Kaplan Meier analysis ([1]; 500 mg in 2.75 ml of NaHCO3 (1 M, resulting in pH 4), orally once a day, compared to groups 2, 3 and 4): significant survival benefit | Median survival time ([1]; 500 mg of 3-BrPA in 2.75 ml of NaHCO3 orally once a day): 100 days | Outcome of unbuffered 3-BrPA ([1]; 500 mg, unbuffered, pH<2, oral): immediate death | Time to death (all animals expired) ([1]; 1000 mg of 3-BrPA in 2.75 ml of NaHCO3 orally): ≤ 24 h | Survival longer than rabbits that did not receive 3-BrPA [1, 4]: 79% | Survival longer than rabbits treated with the MTD of 3-BrPA buffered with PBS [1, 4]: 42% | Cause of death [1, 5]: died of aspiration | Mean liver tumor size [1, 5]: < 0.5 cm | Metastases on pathology [1, 5]: no metastases | Mean liver tumor size ([1]; all other groups): > 8 cm | Metastases on pathology ([1]; all other rabbits): widespread metastases | Increase of MTD compared to the MTD of 3-BrPA in PBS ([1]; buffered with 2.75 ml of 1M NaHCO3): 50 fold | Maximum tolerated dose (MTD) ([1]; buffered with 2.75 ml of 1M NaHCO3, oral): 500 mg | Effectiveness as a cancer therapeutic ([1]; buffering conditions that resulted in a pH>6 (500 mg in 2 M NaHCO3, pH 7)): less effective | Maximum tolerated dose (MTD) ([1]; dissolved in 2.75 ml of PBS, oral): 10 mg | 14C incorporation into genomic DNA [2]: no evidence of ^14C incorporation | IC50 value compared to 3-BrPA dissolved in PBS ([3]; dissolved in NaHCO3): did not show a significantly different in IC50 value | IC50 value compared to 3-BrPA dissolved in PBS ([3]; other buffers tested (NaOH, KOH and KHCO3)): significantly higher IC50 values
